One assay has as its target T1, CA II (Homo sapiens, UniProt P00918).
T1 construct: gene CA2; recombinant, expressed in E. coli and purified
As to the kind of experiment: stopped-flow CO2 hydration. The note with it: 8.5 mM CO2, 20 mM HEPES-Na pH 7.5, 20 mM Na2SO4, 25 °C, 2.5 nM enzyme; Cheng-Prusoff; read-out: In vitro inhibition / Ki (CA II). Type of assay: biochemical. The text has this: stopped-flow CO2 hydration on CA II

For a further assay, the target named is T2, CA IX (Homo sapiens, UniProt Q16790, C174S).
T2 construct: gene CA9; extracellular part, PG and CA domains, residues 38-391, C174S; expressed in HEK 293 cells and purified
As to the kind of experiment: stopped-flow CO2 hydration. Format: biochemical. The note with it: 8.5 mM CO2, 20 mM HEPES-Na pH 7.5, 20 mM Na2SO4, 25 °C, 0.0025% DDM, 0.5 nM enzyme; Cheng-Prusoff; read-out: In vitro inhibition / Ki (CA IX). The text has this:
stopped-flow CO2 hydration on CA IX

With 1-H2NSO2(CH2)5-1,2-closo-C2B10H11 [5a], the Ki at CA II stood at 1.3 ± 0.122 µM; on CA IX, 0.0148 ± 0.00198 µM.

Take 1-H2NSO2(CH2)6–1,2-closo-C2B10H11 [6a]: the Ki is 0.821 ± 0.0707 µM on CA II and 0.0447 ± 0.00486 µM on CA IX.

In the case of “[7-H2NSO2-(CH2)5–7,8-nido-C2B9H11]K [5b^−]”, the Ki stood at 0.299 ± 0.026 µM at CA II and 0.0106 ± 0.00137 µM at CA IX.

Regarding “[7-H2NSO2-(CH2)6–7,8-nido-C2B9H11]K [6b^−]”, the Ki at CA II amounted to 0.0295 ± 0.00332 µM; on CA IX it was 0.0293 ± 0.00739 µM.
